Laboratory results as given in ChEMBL document CHEMBL4507294, “Data for DCP probe MSD-CYP11B2” (2021).

Legend:
[1] = biological target: T1, Alpha-2B adrenergic receptor (Homo sapiens) (UniProt P18089)
T1 sequence (whole entry): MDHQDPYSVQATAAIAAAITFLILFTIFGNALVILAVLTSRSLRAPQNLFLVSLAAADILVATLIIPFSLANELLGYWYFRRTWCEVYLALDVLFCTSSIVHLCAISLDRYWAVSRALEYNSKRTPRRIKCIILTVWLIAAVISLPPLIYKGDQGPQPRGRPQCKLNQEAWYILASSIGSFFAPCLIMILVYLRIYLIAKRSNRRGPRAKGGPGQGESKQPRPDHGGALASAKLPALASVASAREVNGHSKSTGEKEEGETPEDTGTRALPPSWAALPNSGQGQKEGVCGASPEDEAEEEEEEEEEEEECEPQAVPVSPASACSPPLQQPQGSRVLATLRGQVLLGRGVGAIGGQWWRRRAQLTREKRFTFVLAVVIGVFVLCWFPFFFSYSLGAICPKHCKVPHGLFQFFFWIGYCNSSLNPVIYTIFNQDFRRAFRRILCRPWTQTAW

[2] = biological target: 5-hydroxytryptamine receptor 2B (Homo sapiens, UniProt P41595); assay: Inhibition of Serotonin (5-Hydroxytryptamine) 5-HT2B at compound concentration of 10.0 uM in the Eurofins-Panlabs radioligand binding assay (Eurofins_assay_271700); parameters: ligand concentration 1.2 nM, non-specific ligand with concentration 10 uM Serotonin (5-HT), incubation time 60 min, incubation temperature 37 C
[3] = biological target: T2, Muscarinic acetylcholine receptor M2 (Homo sapiens) (UniProt P08172); conditions: Compound concentration 10.0 uM
T2 sequence (whole entry): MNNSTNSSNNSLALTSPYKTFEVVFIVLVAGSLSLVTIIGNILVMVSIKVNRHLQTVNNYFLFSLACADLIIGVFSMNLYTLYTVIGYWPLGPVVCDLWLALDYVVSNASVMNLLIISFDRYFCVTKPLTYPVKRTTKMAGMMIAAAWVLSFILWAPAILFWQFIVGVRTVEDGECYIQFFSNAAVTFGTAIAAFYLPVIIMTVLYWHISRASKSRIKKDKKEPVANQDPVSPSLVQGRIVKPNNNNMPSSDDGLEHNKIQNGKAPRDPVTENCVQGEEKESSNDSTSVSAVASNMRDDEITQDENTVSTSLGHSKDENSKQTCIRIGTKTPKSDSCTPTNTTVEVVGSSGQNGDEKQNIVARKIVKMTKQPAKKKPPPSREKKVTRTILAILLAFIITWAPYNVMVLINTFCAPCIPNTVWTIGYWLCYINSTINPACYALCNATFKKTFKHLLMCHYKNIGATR

[4] = species: Rattus norvegicus; assay: Inhibition of Glutamate, NMDA, Phencyclidine at 10 µM in the Eurofins-Panlabs radioligand binding assay (Eurofins_assay_233000); type: protein-complex assay; conditions: Compound concentration 10.0 uM
[5] = biological target: Phosphodiesterase 3 (Homo sapiens) (UniProt Q14432+Q13370); assay: Inhibition of Phosphodiesterase PDE3 at compound concentration of 10.0 uM in the Eurofins-Panlabs enzyme assay (Eurofins_assay_152000); type: protein assay; parameters: substrate with concentration 1.01 uM [3H] cAMP + cAMP, incubation time 20 min, incubation temperature 25 C; conditions: Compound concentration 10.0 uM

5-hydroxytryptamine receptor 2B, sequence (P41595 whole entry): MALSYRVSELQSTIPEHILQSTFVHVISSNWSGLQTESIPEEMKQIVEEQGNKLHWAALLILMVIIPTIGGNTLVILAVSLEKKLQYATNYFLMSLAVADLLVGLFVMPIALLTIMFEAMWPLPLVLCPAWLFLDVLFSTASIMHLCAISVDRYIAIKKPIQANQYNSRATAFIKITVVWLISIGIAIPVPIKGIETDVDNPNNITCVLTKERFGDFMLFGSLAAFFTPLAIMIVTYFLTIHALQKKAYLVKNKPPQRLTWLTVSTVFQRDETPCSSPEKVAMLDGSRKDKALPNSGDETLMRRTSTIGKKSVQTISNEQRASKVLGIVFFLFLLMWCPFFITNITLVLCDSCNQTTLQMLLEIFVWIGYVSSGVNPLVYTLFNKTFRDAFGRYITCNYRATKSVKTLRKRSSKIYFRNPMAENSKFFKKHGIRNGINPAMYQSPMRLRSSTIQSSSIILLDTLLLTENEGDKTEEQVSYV

CC(C)(O)c1cncc(-c2nc3ccc(F)cc3n2C2CC2)c1 [MSD-CYP11B2]
inhibition ([1]; Compound concentration 0.1 uM): 9%
inhibition ([1]; Compound concentration 1.0 uM): 20%
inhibition ([1]; Compound concentration 10.0 uM): 65%
IC50 [2]: 5.33 µM
Ki [2]: 3.39 µM
inhibition [3]: 6%
inhibition [4]: 3%
inhibition [5]: 10%
